Experimental findings from US11549123B2, “Plant EPSP synthases and methods of use” (PIONEER HI-BRED INTERNATIONAL, INC., priority 2015, dated 2023) are described below.

Numbering of substitutions follows the chain as printed.

The target in assay [1] is T1, Zea mays EPSPS variant S-N at positions 103-107 (Zea mays, UniProt O24566, P106N/T102S).
T1 sequence (O24566 with tags, fused parts or gaps T102S/P106N): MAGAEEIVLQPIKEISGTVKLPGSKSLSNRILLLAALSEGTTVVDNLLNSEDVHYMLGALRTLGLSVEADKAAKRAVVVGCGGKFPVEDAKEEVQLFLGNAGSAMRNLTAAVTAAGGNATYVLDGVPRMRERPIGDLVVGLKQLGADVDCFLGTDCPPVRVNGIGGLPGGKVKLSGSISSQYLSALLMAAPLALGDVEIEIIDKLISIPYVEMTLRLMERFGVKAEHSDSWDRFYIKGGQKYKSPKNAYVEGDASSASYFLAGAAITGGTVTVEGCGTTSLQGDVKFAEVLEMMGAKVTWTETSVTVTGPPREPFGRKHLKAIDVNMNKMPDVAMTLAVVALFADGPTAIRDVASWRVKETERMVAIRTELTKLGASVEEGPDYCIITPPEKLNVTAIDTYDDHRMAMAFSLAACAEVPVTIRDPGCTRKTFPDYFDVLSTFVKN
The assay is described as follows: EPSPS substrate saturation kinetics, maize variant 103S 107N. Format: biochemical. As to the method:
EPSPS activity was determined by quantifying the phosphate generated from the EPSPS reaction. Release of inorganic phosphate was coupled to reaction with 2-amino-6-mercapto-7-methylpurine ribonucleoside, catalyzed by purine-nucleoside phosphorylase (M R Webb, Proc. Natl. Acad. Sci. 89:4884-4887, 1992). The absorbance change that occurs was monitored at 360 nm, where the extinction is 11,200 M^−1 cm^−1, with a Spectramax plate reader (Molecular Devices). To determine kinetic parameters, the varied substrate was present at seven concentrations (the eighth being the blank, containing no substrate) ranging from 4 to 400 uM and the unvaried substrate present at saturation. Six microliters of 50-fold concentrated stock solutions of the varied substrate were placed in the wells of the 96-well assay plate and reactions were started with the addition of a mixture containing 25 mM Hepes, pH 7, 100 mM KCl, 0.3 mM 2-amino-6-mercapto-7-methylpurine ribonucleosde, 1 uM (1 unit/ml) purine-nucleoside phosphorylase (Sigma N8264) and 200 uM of the non-varied substrate. Reactions were monitored with a Spectramax plate reader. The Michaelis-Menten kinetics protocol of the Spectramax software was customized for the substrate concentrations used. The software returns values of KM and Vmax using the Lineweaver-Burke transformation of the Michaelis-Menten equation. To determine kcat, Vmax (uM/min) was divided by the enzyme concentration (uM). […] KI was then calculated from the following form of the Michaelis-Menten equation for competitive inhibition: KI=KM[I]/(KM app−KM) KM approximates the dissociation constant of the enzyme-substrate complex while kcat is the rate of conversion of substrate to product when the substrate concentration is saturating. kcat/KM is a widely accepted parameter for catalytic efficiency when substrate concentration is low (˜KM). […] The parameter kcat/KM×KI is used to quantify both catalytic efficiency and insensitivity and thus the overall fitness of the enzyme. […]

For assay [2], the target named is T2, Oryza sativa EPSPS, native, SEQ ID NO:7 (Oryza sativa, UniProt Q93VK6).
T2 sequence (Q93VK6 64-511): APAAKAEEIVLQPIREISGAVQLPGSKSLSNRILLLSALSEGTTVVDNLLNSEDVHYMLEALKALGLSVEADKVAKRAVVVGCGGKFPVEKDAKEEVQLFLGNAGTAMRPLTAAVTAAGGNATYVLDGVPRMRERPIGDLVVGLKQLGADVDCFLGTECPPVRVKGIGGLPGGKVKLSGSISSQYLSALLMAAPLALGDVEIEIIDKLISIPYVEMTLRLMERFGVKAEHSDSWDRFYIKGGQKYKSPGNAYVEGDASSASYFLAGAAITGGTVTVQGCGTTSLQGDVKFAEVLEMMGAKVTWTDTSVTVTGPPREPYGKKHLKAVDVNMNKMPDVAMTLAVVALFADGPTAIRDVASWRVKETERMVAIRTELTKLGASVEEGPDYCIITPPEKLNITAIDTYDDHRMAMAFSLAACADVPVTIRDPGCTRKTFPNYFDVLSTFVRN
The assay is described as follows: EPSPS substrate saturation kinetics, native rice. It counts as biochemical. On the procedure: EPSPS activity was determined by quantifying the phosphate generated from the EPSPS reaction. Release of inorganic phosphate was coupled to reaction with 2-amino-6-mercapto-7-methylpurine ribonucleoside, catalyzed by purine-nucleoside phosphorylase (M R Webb, Proc. Natl. Acad. Sci. 89:4884-4887, 1992). The absorbance change that occurs was monitored at 360 nm, where the extinction is 11,200 M^−1 cm^−1, with a Spectramax plate reader (Molecular Devices). To determine kinetic parameters, the varied substrate was present at seven concentrations (the eighth being the blank, containing no substrate) ranging from 4 to 400 uM and the unvaried substrate present at saturation. Six microliters of 50-fold concentrated stock solutions of the varied substrate were placed in the wells of the 96-well assay plate and reactions were started with the addition of a mixture containing 25 mM Hepes, pH 7, 100 mM KCl, 0.3 mM 2-amino-6-mercapto-7-methylpurine ribonucleosde, 1 uM (1 unit/ml) purine-nucleoside phosphorylase (Sigma N8264) and 200 uM of the non-varied substrate. Reactions were monitored with a Spectramax plate reader. The Michaelis-Menten kinetics protocol of the Spectramax software was customized for the substrate concentrations used. The software returns values of KM and Vmax using the Lineweaver-Burke transformation of the Michaelis-Menten equation. To determine kcat, Vmax (uM/min) was divided by the enzyme concentration (uM). […] KI was then calculated from the following form of the Michaelis-Menten equation for competitive inhibition: KI=KM[I]/(KM app−KM) KM approximates the dissociation constant of the enzyme-substrate complex while kcat is the rate of conversion of substrate to product when the substrate concentration is saturating. kcat/KM is a widely accepted parameter for catalytic efficiency when substrate concentration is low (˜KM). […] The parameter kcat/KM×KI is used to quantify both catalytic efficiency and insensitivity and thus the overall fitness of the enzyme.
Native EPSPS amino acid sequences of rice (Oryza sativa) (SEQ ID NO:7), sorghum (Sorghum halepense) (SEQ ID NO:8), and sunflower (Helianthus annus) (SEQ ID NO:9) including the chloroplast transit peptide sequences were assembled and analyzed for mapping the corresponding amino acid mutations from the maize 868-H6. If complete EPSPS sequences were not available, appropriate adjustments were made based on sequence alignments and conserved residue mapping.
ChloroP Prediction Server (Emanuelsson, O. et al. 1999. Protein Sci. 8(5):978-84) was used to approximate the amino terminus of the mature EPSPS proteins. […] The synthetic genes were cloned into a plasmid vector and expressed, purified and analyzed as described in Example 1.

For assay [3], the target named is T3, Zea mays EPSPS variant G102A (Zea mays, UniProt O24566, G101A).
T3 sequence (O24566 with tags, fused parts or gaps G101A): T1 sequence (O24566 with tags, fused parts or gaps T102S/P106N) with G102A, S103T, N107P
Briefly: EPSPS substrate saturation kinetics, G102A.

Setting [4] is: PEP as substrate, glyphosate as inhibitor.

With `C=C(OP(=O)(O)O)C(=O)O` [PEP, phosphoenolpyruvate], the kcat in assay [1] (PEP varied) worked out at 161; in assay [2] (PEP varied), 1858 min⁻¹; in assay [3] (PEP varied) it was 695 min⁻¹. Moreover, the Km in assay [2] (read-out: KM (PEP), PEP varied) was determined as 12.6 µM. In addition, the kcat/KM in assay [3] (PEP) is 2.2 min^−1uM^−1.

`O=C(O)CNCP(=O)(O)O` [glyphosate, N-phosphonomethylglycine]: the Ki in assay [1] stood at 244 µM; in assay [2], 100 nM; in assay [3] (KI (glyphosate), competitive with PEP) it was 2.29 mM; in assay [3] (Ki, substrate saturation, Zm-G102A), 1.34 mM. Besides, the “(kcat/KM)*KI” value was 1033 in assay [1] (setting [4]); 18 in assay [2] (setting [4]); 5137 in assay [3] (setting [4]); 2820 in assay [3] (substrate saturation, Zm-G102A).
